{"source": "patent US20230339835A1", "about": "“2,3,5-TRIMETHYL-6-NONYLCYCLOHEXA-2,5-DIENE-1,4-DIONE FOR SUPPRESSING AND TREATING ALPHA-SYNUCLEINOPATHIES, TAUOPATHIES, AND OTHER DISORDERS” (PTC THERAPEUTICS, INC., priority 2018, published 2023)", "key": {"[1]": {"test": "Humidification cycling by dynamic vapor sorption (DVS)", "type": "physicochemical", "method": "As-received material (ID 1-1) was subjected to humidification cycling by dynamic vapor sorption (DVS) instrument. The material underwent a 0.01% change in mass in the 15-75% relative humidity range, and a 0.08% change in mass over the full range of 2-95% relative humidity. Following humidification cycling, the solid was analyzed by XRPD."}, "[2]": {"test": "Solubility in simulated fluids and water", "type": "physicochemical", "details": "for solubility at 24 h: thermodynamic from solid", "method": "Solubility of Pattern A and melted solid was assessed in Fasted-State Simulated Gastric Fluid (FaSSGF), Fed-State Simulated Intestinal Fluid (FeSSIF), and Fasted-State Simulated Intestinal Fluid (FaSSIF), water, and 0.5% methyl cellulose+2% Tween80 in water. Five foil-covered 4 mL vials were prepared with 11-13 mg of as-received material (ID-1-1), 10 mm stir bars were included. Five foil-covered 4 mL vials containing between 11-13 mg of C9 were melted on a hot plate at 70° C. for 10 min and cooled to room temperature for 5 min, 10 mm stir bars were included.\nSlurries were prepared with the as-received material ID-1-1 (Pattern A) and melted C9, each in 2.5 mL of simulated fluids (including 0.5% methyl cellulose+2% Tween80 in water), or water. The samples containing melted active pharmaceutical ingredient (API) were sonicated briefly, as they appeared to contain clumps of material. […] For solubility analysis 1 mL of each sample was pipetted into a syringe filter, the first 0.5 mL was filtered back into the source vial and the remaining 0.5 mL was filtered into HPLC vials with low volume inserts.\nThe response factor calculated with the calibration points was used to determine the concentrations of API in the simulated fluids and water. Calibration samples were prepared with as-received material (ID-1-1) in ACN. The concentrations and peak areas for each calibration point were plotted and a response factor calculated for solubility assessment.\nDue to high pressures observed with the UPLC column, a different column and a modified method was employed for 24 h data points with 0.5% methyl cellulose+2% Tween80 in water, and 24 h in water (ID-30-4, ID-30-9 and ID-30-10). HPLC samples of ID-30-4 and 30-9 (those containing the methyl cellulose/Tween80 mixture) were diluted 10× with ACN. These samples plus a new set of injections of the calibration points were analyzed, a new response factor was determined, and the solubility of the remaining samples was calculated (response factor: 8084.7908; R2: 0.9989)."}, "[3]": {"test_system": "N27 rat dopaminergic cells overexpressing a truncated human αSynuclein-GFP fusion protein", "test": "Inhibition of RSL3-induced αSynuclein aggregation in N27 cells", "type": "cell-based", "details": "60 nM RSL3, 70 nM compound, 24 hr, vs RSL3 only (Dunnett's test)", "method": "N27 rat dopaminergic cells (purchased from EMD Millipore, SCC048) were transformed to stably overexpress truncated α-Synuclein fused with green fluorescent protein (GFP) with a plasmid construct obtained from Origene (RG221446). Cells were maintained in selection media which consisted of RPMI 1640 media supplemented with 10% (v/v) fetal bovine serum (Millipore, ES-009-B), 1% (v/v) Pencillin-Streptomycin (Gibco, 15140-122), 1% (v/v) L-Glutamine (Gibco, 25030-081) and 500 μg/mL of G418 (Gibco, 10131-027).\nN27 rat dopaminergic cells overexpressing a truncated (112 amino acid) human αSynuclein-GFP fusion protein, as described above, were maintained in normal culture conditions as described above. The day before the experiment, cells were plated in 96 well optical bottom, black walled plates at 3,000 cells/well, and maintained at 37° C. for 24 hr. The experiment was initiated by co-treating cells with (1S,3R)-methyl 2-(2-chloroacetyl)-1-(4-(methoxycarbonyl)phenyl)-2,3,4,9-tetrahydro-1H-pyrido[3,4-b]indole-3-carboxylate (1S,3R-RSL3, described by Yang et al., Cell 156:317-331 (2014)) (60 nM) and 70 nM compounds (2,3,5-trimethyl-6-nonylcyclohexa-2,5-diene-1,4-dione (C9), 2,3,5-trimethyl-6-octylcyclohexa-2,5-diene-1,4-dione (C8), or 2,3,5-trimethyl-6-heptylcyclohexa-2,5-diene-1,4-dione (C7)) using a D300e compound printer (Tecan), and placed back in the incubator at 37° C. for 24 hr. Cells were fixed with 4% paraformaldehyde for 15 minutes at room temperature, washed 3 times with Dulbecco's phosphate-buffered saline (DPBS) buffer, and then incubated at room temperature for 48 hr with 1% Triton-X 100 solution (in DPBS) to enable selective labeling of aggregated αSynuclein. Cells were then washed and standard immunocytochemistry (ICC) methods were employed to label total αSynuclein (mouse anti-αSynuclein, 1:250, BD Biosciences). Cells were incubated with primary antibody overnight at 4° C. and then washed with DPBS 3 times the following day. Cells were then incubated at room temperature with a fluorescently conjugated secondary antibody (goat anti-mouse Alexa 647, Invitrogen) for 2 hr at room temperature. 10 nM Hoechst was also added to label nuclei, and cells were imaged on a high-content imaging platform (ThermoFisher, HSC Cellomics Arrayscan) to quantify total aggregated αSynuclein (see FIG. 3A).\nStatistical analysis of samples was performed via ordinary one-way ANOVA analysis with Dunnett's multiple comparisons test, comparing RSL3 only-treated vs. RSL3 plus compound-treated cells."}, "[4]": {"molecular_target": "T1, recombinant human αSynuclein (Homo sapiens, UniProt P37840)", "T1 construct": "purchased Proteos, Inc", "test": "Cell-free αSynuclein aggregation assay (Thioflavin T)", "type": "biochemical", "details": "200 μM αSynuclein, 100 μM compound, t=24 hours, one-way ANOVA with Tukey's test", "method": "Summary: The compound 2,3,5-trimethyl-6-nonylcyclohexa-2,5-diene-1,4-dione (“C9”), and its C8 (2,3,5-trimethyl-6-octylcyclohexa-2,5-diene-1,4-dione) and C7 (2,3,5-trimethyl-6-heptylcyclohexa-2,5-diene-1,4-dione) analogs were tested for their function as inhibitors of αSynuclein aggregation, as measured by the presence and extent of a lag phase in the kinetics of protein aggregation. Changes in the fluorescence intensity by the aggregate-binding fluorophore, Thioflavin T, were followed to report on the protein aggregation as a function of time.\nExperimental Methods: Cell-free αSynuclein aggregation assays were set up with 200 μM of recombinant human αSynuclein (Proteos, Inc.) in the presence of 100 μM of compound (from 10 mM stock solutions in DMSO) or in 1% (v/v) DMSO as vehicle. All solutions were prepared in Dulbecco's phosphate-buffered saline (DPBS) buffer (pH 7.4) with 0.03% (v/v) NaN3 and 5 μM Thioflavin T (ThT), prepared as a master mix before addition of the protein or compounds. A protein master mix was then prepared and separated into 4 tubes (1 per condition). […]\nProtein solution+/−compound and background samples were then loaded into wells of an optically transparent 96-well plate with black walls (Corning Costar), which was sealed with a LightCycler® 480 seal (Roche Life Science), incubated at 37° C. for 15 minutes to equilibrate, after which the data collection was started. A Tecan M1000 spectrometer was used to collect data points on ThT fluorescence (ex/em 450/490 nm) every 30 minutes. The plate was agitated by shaking in between fluorescence reads.\nData Analysis and Results: Fluorescence intensity data were collected on all the samples over time. The endpoint fluorescence intensity unit (FIU) value of the mean of vehicle-treated αSyn samples was set to 100%, and all other FIU values were normalized relative to it (see FIG. 1A). The end results were plotted as normalized ThT fluorescence (%) with respect to time.\nNormalized ThT fluorescence values (% FIU) at t=24 hours were used to compare samples (see FIG. 1B). […]"}, "[5]": {"molecular_target": "T2, pre-formed fibrils (PFFs) of human wild-type Tau K18 fragment (Homo sapiens, UniProt P10636)", "T2 construct": "human recombinant Tau K18 WT fragment were generated by incubating the Tau K18 monomer (Bio-Techne®); purchased Bio-Techne", "T2 sequence (P10636 561-685 limits assumed)": "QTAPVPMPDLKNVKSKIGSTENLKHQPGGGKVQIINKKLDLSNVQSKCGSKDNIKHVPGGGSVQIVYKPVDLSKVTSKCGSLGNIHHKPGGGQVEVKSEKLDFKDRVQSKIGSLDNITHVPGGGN", "test": "Cell-free Tau K18 WT pre-formed fibril disaggregation assay (Thioflavin T)", "type": "biochemical", "details": "10 μM Tau PFFs, 30 μM compound, 94 hr, vs vehicle (Dunnett's test)", "method": "Summary: Compounds 2,3,5-trimethyl-6-nonylcyclohexa-2,5-diene-1,4-dione (C9), 2,3,5-trimethyl-6-octylcyclohexa-2,5-diene-1,4-dione (C8), and 2,3,5-trimethyl-6-heptylcyclohexa-2,5-diene-1,4-dione (C7) were tested for their ability to disaggregate pre-formed fibrils (PFFs) of human wild-type Tau K18 fragment, as measured by the decrease in fluorescence intensity of the aggregate-binding fluorophore, Thioflavin T, over time.\nExperimental Methods: Pre-formed fibrils (PFFs) of the human recombinant Tau K18 WT fragment were generated by incubating the Tau K18 monomer (Bio-Techne®) with sodium heparin in a 1:1 ratio in presence of excess (50×) tris(2-carboxyethyl)phosphine (TCEP) as the reducing agent in Dulbecco's phosphate-buffered saline (DPBS) buffer (pH 7.4). The mixture was incubated for 4 days at 37° C. without agitation to yield PFFs in 100 μM final concentration.\nCell-free Tau disaggregation assays were set up with 10 μM of Tau PFFs in the presence of 30 μM of compound (from 10 mM stocks in DMSO) or in 0.3% (v/v) DMSO as vehicle. All solutions were prepared in DPBS buffer (pH 7.4) with 0.03% (v/v) NaN3 and 5 μM Thioflavin T (ThT), prepared as a master mix before addition of the protein or compounds. A protein master mix was first prepared the day before the assay to pre-equilibrate the Tau PFFs at 10 μM at ambient temperature and atmosphere. The next day, the pre-mixed protein solution was separated into 4 tubes (1 per condition). […]\nTau PFFs solution+/−compound and background samples were then loaded into wells of an optically transparent 96-well plate with black walls, which was sealed with a LightCycler® 480 seal (Roche Life Science), incubated at 37° C. for 15 minutes to equilibrate and the data collection was initiated. A Tecan M1000 spectrometer was used to collect data points on ThT fluorescence (ex/em 450/490 nm) every 30 minutes without agitation.\nData Analysis and Results: The maximum fluorescence intensity unit (FIU) value of the vehicle-treated Tau samples was set to 100%, to which all other FIU values were normalized relatively. […]"}}, "note": "Marks after values point to notes of the source that are not given here.", "data": [{"smiles": "CCCCCCCCCC1=C(C)C(=O)C(C)=C(C)C1=O", "note": "[Melted Pattern A, 2,3,5-trimethyl-6-nonylcyclohexa-2,5-diene-1,4-dione]", "values": [{"measurement": "DVS Change Mass (wt. %)", "setting": "[1]; 2-95% RH", "result": 0.073, "unit": "wt. %"}, {"measurement": "DVS Change Mass (wt. %)", "setting": "[1]; 15-75% RH", "result": 0.044, "unit": "wt. %"}, {"measurement": "Solubility at 24 hours (mg/mL)", "setting": "[2]; 0.5% MC + 2% Tween80 (aq), Phenomenex Luna Phenyl Hexyl HPLC column and modified method, listed as A (melted)", "result": "0.28# mg/mL"}, {"measurement": "Conc. (mg/mL) at 30 min", "setting": "[2]; 0.5% MC + 2% Tween80 (aq.), listed as A (melted)", "result": 0.22, "unit": "mg/mL"}, {"measurement": "solubility at 24 h", "setting": "[2]; 0.5% methyl cellulose + 2% Tween80 in water, aqueous with cosolvent or surfactant or cyclodextrin, 0.5% MC + 2% Tween80 (aq), Phenomenex Luna Phenyl Hexyl HPLC column and modified method", "result": 280, "unit": "µg/mL"}, {"measurement": "Conc. (mg/mL) at 30 min", "setting": "[2]; FaSSGF", "result": "BDL"}, {"measurement": "Solubility at 24 hours (mg/mL)", "setting": "[2]; FaSSGF", "result": "BDL"}, {"measurement": "Conc. (mg/mL) at 30 min", "setting": "[2]; FaSSIF, listed as A (melted)", "result": 0.02, "unit": "mg/mL"}, {"measurement": "solubility at 24 h", "setting": "[2]; Fasted-State Simulated Intestinal Fluid (FaSSIF), fassif", "result": 40, "unit": "µg/mL"}, {"measurement": "Conc. (mg/mL) at 30 min", "setting": "[2]; FeSSIF, listed as A (melted)", "result": 0.25, "unit": "mg/mL"}, {"measurement": "solubility at 24 h", "setting": "[2]; Fed-State Simulated Intestinal Fluid (FeSSIF), fessif", "result": 200, "unit": "µg/mL"}, {"measurement": "Conc. (mg/mL) at 30 min", "setting": "[2]; water", "result": "BDL"}, {"measurement": "Solubility at 24 hours (mg/mL)", "setting": "[2]; water", "result": "BDL"}, {"measurement": "Solubility at 24 hours (mg/mL)", "setting": "[2]; water, listed as A (melted)", "result": "BDL#"}]}, {"smiles": "CCCCCCCC1=C(C)C(=O)C(C)=C(C)C1=O", "note": "[Compound C7, 2,3,5-trimethyl-6-heptylcyclohexa-2,5-diene-1,4-dione]", "values": [{"measurement": "inhibition of RSL3-induced αSynuclein aggregation", "setting": "[3]", "result": "did not demonstrate any inhibition"}, {"measurement": "inhibition of αSynuclein aggregation (normalized ThT fluorescence vs vehicle)", "setting": "[4]", "result": "not statistically significant"}, {"measurement": "reduction in Tau fibril content", "setting": "[5]", "result": "did not have a significant reduction"}]}]}
